# In patent US20240400549A1, “COMPOUNDS AND THEIR USES FOR TREATING NEURODEGENERATIVE DISEASE” (Academia Sinica, priority 2021, published 2024):
# Key:
# [1] = molecular target: T1, YFP—C-TDP-43 aggregates (Homo sapiens, UniProt Q13148); experiment: YFP-C-TDP-43 aggregates in transgenic C. elegans (confocal imaging); assay type: in vivo; details: 5 μM I-1b; compared to DMSO control or MG132-treated group
# T1 construct: IW33 [Psnb-l:C-TDP-43219-414-YFP (iwIs22)]; expressed in transfected cells; host or cells: transgenic C. elegans strain IW33 (pan-neuronal snb-1 promoter)
# T1 sequence (Q13148 219-414 limits assumed): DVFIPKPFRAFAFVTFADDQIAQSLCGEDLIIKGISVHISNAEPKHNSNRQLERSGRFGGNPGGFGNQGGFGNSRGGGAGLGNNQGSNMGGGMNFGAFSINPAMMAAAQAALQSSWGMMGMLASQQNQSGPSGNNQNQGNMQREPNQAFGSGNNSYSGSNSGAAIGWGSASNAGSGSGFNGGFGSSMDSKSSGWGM
# Experimental: (§1) The YFP—C-TDP-43 transgenic strains of C. elegans generated in this study were IW33 [Psnb-l:C-TDP-43219-414-YFP (iwIs22)]. The strains of nematodes were maintained with standard procedure and grown at 20° C. as previously described (Zhang, T. et al. Hum. Mol. Genet. 2011, 20 (10), 1952). For all assays, the transgenic young two-day (80 hours) adults were used. For larvae synchronization, the eggs were isolated by lysing gravid adult worms with freshly prepared bleaching solution (0.5 mL 5 M NaOH with 1 mL bleach) and incubated in S buffer (recipe) for overnight. For drug treatments, compound I-1b and/or DMSO were solely or along with MG132 applied to fresh NGM plates prior to installing the synchronized C. elegans. The body bends of the corresponding treatment in a duration of 30 seconds of the various strains were documented through SMZ800N stereomicroscope equipped with a CCD camera (Nikon). A body bend was counted as the head of C. elegans travels across the mid-body in 1×PBS buffer. Then, the bending videos of C. elegans were analyzed by ImageJ with the wrMTrck plugin (Nussbaum-Krammer, C. I. et al. J. Vis. Exp. 2015, (95), 52321). […]
# (§2) As YFP—C-TDP-43 readily forms cytosolic aggregates in nervous system, the YFP—C-TDP-43 aggregates both in the neuron processes and neuron bodies of the ventral cord were monitored. […]
# [2] = test system: YFP—C-TDP-43 transgenic C. elegans; experiment: Swimming (thrashing) body bend assay of YFP-C-TDP-43 transgenic C. elegans; assay type: in vivo; details: YFP—C-TDP-43 C. elegans, swimming in buffer, 30 seconds
# Experimental: as §1, §2
# [3] = molecular target: T2, C-TDP-43 oligomeric intermediates (Homo sapiens, UniProt Q13148); experiment: FLIM-FRET of C-TDP-43 oligomeric intermediates in Neuro-2a cells; assay type: cell-based, mouse
# T2 construct: expressed in transfected cells; host or cells: Neuro-2a (mouse neuroblastoma)
# T2 sequence (Q13148 208-414 limits assumed): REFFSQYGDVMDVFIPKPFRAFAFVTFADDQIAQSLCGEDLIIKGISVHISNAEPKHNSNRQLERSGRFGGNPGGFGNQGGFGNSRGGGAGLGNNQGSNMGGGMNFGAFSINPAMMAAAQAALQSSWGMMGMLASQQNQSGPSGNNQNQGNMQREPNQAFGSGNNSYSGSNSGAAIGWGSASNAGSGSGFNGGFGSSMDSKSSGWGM
# T2 sequence (Q13148 208-414 limits assumed): as above
# Experimental: To study the EFRET of oligomeric intermediates of C-TDP-43, we seeded 2×10^6 cells/dish of Neuro-2a cells in sterile 35 mm μ-Dish and transfected with either both 0.55 μg eGFP-C-TDP-43 and 0.55 μg mCherry-C-TDP-43 or both 0.55 μg eGFP and 0.55 μg mCherry (negative control) plasmids. After 2 hours, compound I-1b was delivered to the experimental group. After 48 h incubation, the Neuro-2a cells were fixed (4% paraformaldehyde in 15 min and stored in 1×PBS buffer) and further analyzed by Q2 FastFLIM system (ISS Inc.). The Neruo2a cells were monitored and captured under oil-immersion objective observation (Nikon Plan Apo 100×/numerical aperture (NA) 1.4). […]
# The fitting method of the FastFLIM images were described in the “Experimental Section” of a previous publication (He, R. Y et al. Adv. Sci. 2020, 7 (2), 1901165). […] The FRET efficiency of oligomeric intermediates was calculated by the formula: […]
# wherein τD is donor lifetime of eGFP only, and τDA denotes lifetime of intermediates. Then, the EFRET of each pixel to form the FRET maps as well as the histogram of EFRET (FIG. 12B) were calculated by ISS Software VistaVision. […]
# To assess C-TDP-43 oligomeric intermediates, fluorescence lifetime imaging microscopy (FLIM) was employed to measure the efficiency of Forster resonance energy transfer (EFRET) of the fluorescence protein-tagged C-TDP-43 in the presence or absence of compound I-1b. […]
compound,measurement,setting,value
"CN(C)c1ccc(-c2nc3ccc(OCCOCCOCCNc4cccc5c4C(=O)N(C4CCC(=O)NC4=O)C5=O)cc3s2)cc1 (stereo not shown) [I-1b, 4-((2-(2-(2-((2-(4-(dimethylamino)phenyl)benzo[d]thiazol-6-yl)oxy)ethoxy)ethoxy)ethyl)amino)-2-(2,6-dioxopiperidin-3-yl)isoindoline-1,3-dione]",YFP—C-TDP-43 aggregates in neuron processes and neuron bodies of the ventral cord,[1],fewer aggregates with reduced fluorescence intensity
same,increase of bending frequency as compared to the DMSO control group,[2],28%
same,averaged EFRET value,"[3]; Neuro-2a cells expressing 2FP—C-TDP-43, 48 h, 28.12% without compound, 3.36% negative control",22.4%
same,"EFRET of the C-TDP-43 oligomeric intermediates (statistically, ISS VistaVision)","[3]; Neuro-2a cells, decreased from 48.92% without compound",40.11%
